Results: patent US12729180B2, “Functionalized Maleimides and Isomaleimides and a process for preparation thereof” (COUNCIL OF SCIENTIFIC AND INDUSTRIAL RESEARCH, priority 2021, dated 2026)

System: MCF-7 breast cancer cell line
Experiment: MTT assay against breast cancer cell line
Format: cell-based
Conditions: Homo sapiens, MCF7, 72 hours after treatment; for cytotoxicity at 100 µM / viability at 100 µM: MCF-7, 100 uM; for cytotoxicity at 100 µM / cytotoxicity at 300 µM: read-out: % Dead cells; for viability at 100 µM / viability at 300 µM: read-out: % Live cells; for cytotoxicity at 300 µM / viability at 300 µM: MCF-7, 300 uM
Procedure: In another embodiment, the functionalized maleimides and isomaleimides of Formula (I) are useful as antimicrobials and anti-cancer agents. MTT assay of compounds of Formula (I) is summarized below in Table-1 The compounds were tested against breast cancer cell line at 100 and 300 μM concentrations and % live and % dead cells were determined.
The compounds were evaluated for anti-cancer activity by testing them against breast cancer cell lines obtained from NCCS, Pune, India. The MITT assay was carried out. The assay procedure involves reconstitution of the pre-measured MTT reagent in the assay buffer, followed by its addition to the culture system. After dissolving the formazan crystals in the solubilization solution, results can be directly read on a suitable reader.
• 1. Harvest the cells; • 2. Seed 10,000 cells in 100 μl DMEM media/well in 96-well microtiter plate in triplicate; • 3. Incubate the cells at 37° C., 5% CO2 for 24 hours to achieve morphology; • 4. Treat the cells with varying concentrations of drugs; • 5. Controls included untreated cells and cells treated with 100 uM Doxorubicin; • 6. Incubate the cells for 72 hours after treatment; • 7. Add 10 μl of MTT to each well, including controls; • 8. Wrap the plate with aluminium foil to avoid exposure to light; • 9. Return the plate to the incubator for 2 hours; • 10. Observe the cells under an inverted microscope for presence of intracellular needle-shaped, dark purple coloured precipitate; • 11. When the purple precipitate is clearly visible under the microscope, add 100 μl of solubilization solution to the wells; • 12. Stir gently on a gyratory shaker to enhance dissolution of the crystals; • 13. Read the absorbance on a spectrophotometer or an ELISA reader at 570 nm with a reference wavelength higher than 650 nm.

SMILES | cytotoxicity at 100 µM | viability at 100 µM | cytotoxicity at 300 µM | viability at 300 µM
CCOC(=O)CC1=C(Cc2cccc(Oc3ccccc3)c2)C(=O)O/C1=N\C1CCC(C)CC1 (stereo not drawn) [Compound 3c, Ethyl (Z)-2-(2-((4-methylcyclohexyl)imino)-5-oxo-4-(3-phenoxybenzyl)-2,5-dihydrofuran-3-yl) acetate] | 32.9% | 67.1% | 34.8% | 65.2%
CCOC(=O)CC1=C(Cc2ccc(Cl)cc2)C(=O)O/C1=N\C1CCC(C)CC1 (stereo not drawn) [Compound 3e, Ethyl (Z)-2-(4-(4-chlorobenzyl)-2-((4-methylcyclohexyl)imino)-5-oxo-2,5-dihydrofuran-3-yl)acetate] | 45.3% | 54.7% | 53.7% | 46.3%
CCOC(=O)CC1=C(Cc2cccc(C(F)(F)F)c2)C(=O)O/C1=N\C1CCC(C)CC1 (stereo not drawn) [Compound 3h, Ethyl (Z)-2-(2-((4-methylcyclohexyl)imino)-5-oxo-4-(3-(trifluoromethyl)benzyl)-2,5-dihydrofuran-3-yl)acetate] | 49.1% | 50.9% | 60.9% | 39.1%
CCOC(=O)CC1=C(Cc2c3ccccc3cc3ccccc23)C(=O)O/C1=N\C1CCC(C)CC1 (stereo not drawn) [Compound 3k, Ethyl (Z)-2-(4-(anthracen-9-ylmethyl)-2-((4-methylcyclohexyl)imino)-5-oxo-2,5-dihydrofuran-3-yl)acetate] | 27.4% | 72.5% | 33% | 67%
CCOC(=O)CC1=C(C(c2ccccc2)c2ccccc2)C(=O)O/C1=N\C1CCC(C)CC1 (stereo not drawn) [Compound 3p, Ethyl (Z)-2-(4-benzhydryl-2-((4-methylcyclohexyl)imino)-5-oxo-2,5-dihydrofuran-3-yl)acetate] | 43.5% | 56.5% | 51.1% | 48.9%
CCOC(=O)CC1=C(Cc2ccc3ccccc3c2)C(=O)O/C1=N\C1CCC(C)CC1 (stereo not drawn) [Compound 3j, Ethyl (Z)-2-(2-((4-methylcyclohexyl)imino)-4-(naphthalen-2-ylmethyl)-5-oxo-2,5-dihydrofuran-3-yl)acetate] | 51.7% | 48.3% | 59.7% | 40.3%
CCOC(=O)CC1=C(Cc2ccccc2F)C(=O)O/C1=N\C1CCC(C)CC1 (stereo not drawn) [Compound 3f, Ethyl (Z)-2-(4-(2-fluorobenzyl)-2-((4-methylcyclohexyl)imino)-5-oxo-2,5-dihydrofuran-3-yl)acetate] | 26.6% | 73.4% | 49.6% | 50.4%
CCOC(=O)CC1=C(Cc2cc(OC)ccc2OC)C(=O)O/C1=N\C1CCC(C)CC1 (stereo not drawn) [Compound 3d, Ethyl (Z)-2-(4-(2,5-dimethoxybenzyl)-2-((4-methylcyclohexyl)imino)-5-oxo-2,5-dihydrofuran-3-yl)acetate] | 32.9% | 67.1% | 54.4% | 45.6%
CCOC(=O)CC1=C(Cc2ccc(F)c(F)c2)C(=O)O/C1=N\C1CCC(C)CC1 (stereo not drawn) [Compound 3g, Ethyl (Z)-2-(4-(3,4-difluorobenzyl)-2-((4-methylcyclohexyl)imino)-5-oxo-2,5-dihydrofuran-3-yl)acetate] | 26.4% | 73.6% | 47.2% | 52.8%
